ChEMBL document CHEMBL1155164, “Sequencing and comparative genomic analysis of pK29, a 269-kilobase conjugative plasmid encoding CMY-8 and CTX-M-3 beta-lactamases in Klebsiella pneumoniae” (2007)
In brackets after ≈: the same amount, converted by molar mass.

Experiments:
Assay type in all cases: functional
Klebsiella pneumoniae [1] = assay: Antibacterial activity against Klebsiella pneumoniae NK29 by Etest
Escherichia coli [2] = assay: Antibacterial activity against plasmid pK29 transconjugant Escherichia coli J53 by Etest
Escherichia coli [3] = assay: Antibacterial activity against Escherichia coli J53 by Etest
Klebsiella pneumoniae [4] = assay: Antibacterial activity against Klebsiella pneumoniae NK29 assessed as inhibition zone diameter by CLSI disk diffusion confirmatory test
Escherichia coli [5] = assay: Antibacterial activity against plasmid pK29 transconjugant Escherichia coli J53 assessed as inhibition zone diameter by CLSI disk diffusion confirmatory test
Escherichia coli [6] = assay: Antibacterial activity against Escherichia coli J53 assessed as inhibition zone diameter by CLSI disk diffusion confirmatory test
Klebsiella pneumoniae [7] = assay: Antibacterial activity against Klebsiella pneumoniae NK29 by broth microdilution test
Escherichia coli [8] = assay: Antibacterial activity against plasmid pK29 transconjugant Escherichia coli J53 by broth microdilution test
Escherichia coli [9] = assay: Antibacterial activity against Escherichia coli J53 by broth microdilution test

SMILES	MIC (Klebsiella pneumoniae [1])	MIC (Escherichia coli [2])	MIC (Escherichia coli [3])	inhibition zone (IZ) (Klebsiella pneumoniae [4])	inhibition zone (IZ) (Escherichia coli [5])	inhibition zone (IZ) (Escherichia coli [6])	MIC (Klebsiella pneumoniae [7])	MIC (Escherichia coli [8])	MIC (Escherichia coli [9])
O=C(N[C@H](CO)[C@H](O)c1ccc([N+](=O)[O-])cc1)C(Cl)Cl [CHLORAMPHENICOL]	96 µg/mL (≈ 297 µM)	96 µg/mL (≈ 297 µM)	4 µg/mL (≈ 12.4 µM)						
CO/N=C(\C(=O)N[C@@H]1C(=O)N2C(C(=O)[O-])=C(C[N+]3(C)CCCC3)CS[C@H]12)c1csc(N)n1 [CEFEPIME]	2 µg/mL (≈ 4.16 µM)	1 µg/mL (≈ 2.08 µM)	0.094 µg/mL (≈ 0.196 µM)						
CO[C@@]1(NC(=O)Cc2cccs2)C(=O)N2C(C(=O)O)=C(COC(N)=O)CS[C@@H]21 [CEFOXITIN]	> 256 µg/mL	> 256 µg/mL	4 µg/mL (≈ 9.36 µM)						
C[C@H]1[C@H](NC(=O)/C(=N\OC(C)(C)C(=O)O)c2csc(N)n2)C(=O)N1S(=O)(=O)O [AZTREONAM]	4 µg/mL (≈ 9.19 µM)	2 µg/mL (≈ 4.59 µM)							
CC(C)(O/N=C(\C(=O)N[C@@H]1C(=O)N2C(C(=O)[O-])=C(C[n+]3ccccc3)CS[C@H]12)c1csc(N)n1)C(=O)O [CEFTAZIDIME]	16 µg/mL (≈ 29.3 µM)	1.5 µg/mL (≈ 2.74 µM)	0.19 µg/mL (≈ 0.348 µM)	17 mm	27 mm	33 mm			
Cc1cc(NS(=O)(=O)c2ccc(N)cc2)no1 [SULFAMETHOXAZOLE]							> 512 µg/mL	> 512 µg/mL	≤ 64 µg/mL
O=C(O)c1cn(C2CC2)c2cc(N3CCNCC3)c(F)cc2c1=O [CIPROFLOXACIN]	0.047 µg/mL (≈ 0.142 µM)								
C[C@@H](O)[C@H]1C(=O)N2C(C(=O)O)=C(SCCNC=N)C[C@H]12 [IMIPENEM ANHYDROUS]	0.25 µg/mL (≈ 0.835 µM)	0.25 µg/mL (≈ 0.835 µM)							
CO/N=C(\C(=O)N[C@@H]1C(=O)N2C(C(=O)O)=C(CSc3nc(=O)c(O)nn3C)CS[C@H]12)c1csc(N)n1 [CEFTRIAXONE]	24 µg/mL (≈ 43.3 µM)	16 µg/mL (≈ 28.9 µM)	0.19 µg/mL (≈ 0.343 µM)						
CO/N=C(\C(=O)N[C@@H]1C(=O)N2C(C(=O)O)=C(COC(C)=O)CS[C@H]12)c1csc(N)n1 [CEFOTAXIME]	32 µg/mL (≈ 70.3 µM)	24 µg/mL (≈ 52.7 µM)	0.064 µg/mL (≈ 0.141 µM)	13 mm	16 mm	31 mm			
CN(C)[C@@H]1C(O)=C(C(N)=O)C(=O)[C@@]2(O)C(O)=C3C(=O)c4c(O)cccc4[C@@](C)(O)[C@H]3C[C@@H]12 [TETRACYCLINE]	8 µg/mL (≈ 18 µM)	2 µg/mL (≈ 4.5 µM)	2 µg/mL (≈ 4.5 µM)						
NC[C@H]1O[C@H](O[C@H]2[C@H](O)[C@@H](O[C@H]3O[C@H](CO)[C@@H](O)[C@H](N)[C@H]3O)[C@H](N)C[C@@H]2N)[C@H](O)[C@@H](O)[C@@H]1O [KANAMYCIN]							32 µg/mL (≈ 66 µM)	32 µg/mL (≈ 66 µM)	8 µg/mL (≈ 16.5 µM)
